Measured values: ChEMBL document CHEMBL6114998, “Design, Synthesis, and Pharmacological Evaluation of Quinazoline and Quinoline Derivatives as Potent ENPP1 Inhibitors for Cancer Immunotherapy” (J Med Chem, 2025)
The source made the active and inactive calls. The rule behind the calls is not given here.

Assays:
[1] = target: T1, Ectonucleotide pyrophosphatase/phosphodiesterase family member 1 (Homo sapiens, UniProt P22413); test: Inhibition of recombinant human ENPP1 transfected in HEK293T cells using cGAMP as substrate at pH 7.5 measured after 3.5 hrs by luminescence based AMP-glo assay; assay type: cell-based
T1 sequence (P22413 whole entry): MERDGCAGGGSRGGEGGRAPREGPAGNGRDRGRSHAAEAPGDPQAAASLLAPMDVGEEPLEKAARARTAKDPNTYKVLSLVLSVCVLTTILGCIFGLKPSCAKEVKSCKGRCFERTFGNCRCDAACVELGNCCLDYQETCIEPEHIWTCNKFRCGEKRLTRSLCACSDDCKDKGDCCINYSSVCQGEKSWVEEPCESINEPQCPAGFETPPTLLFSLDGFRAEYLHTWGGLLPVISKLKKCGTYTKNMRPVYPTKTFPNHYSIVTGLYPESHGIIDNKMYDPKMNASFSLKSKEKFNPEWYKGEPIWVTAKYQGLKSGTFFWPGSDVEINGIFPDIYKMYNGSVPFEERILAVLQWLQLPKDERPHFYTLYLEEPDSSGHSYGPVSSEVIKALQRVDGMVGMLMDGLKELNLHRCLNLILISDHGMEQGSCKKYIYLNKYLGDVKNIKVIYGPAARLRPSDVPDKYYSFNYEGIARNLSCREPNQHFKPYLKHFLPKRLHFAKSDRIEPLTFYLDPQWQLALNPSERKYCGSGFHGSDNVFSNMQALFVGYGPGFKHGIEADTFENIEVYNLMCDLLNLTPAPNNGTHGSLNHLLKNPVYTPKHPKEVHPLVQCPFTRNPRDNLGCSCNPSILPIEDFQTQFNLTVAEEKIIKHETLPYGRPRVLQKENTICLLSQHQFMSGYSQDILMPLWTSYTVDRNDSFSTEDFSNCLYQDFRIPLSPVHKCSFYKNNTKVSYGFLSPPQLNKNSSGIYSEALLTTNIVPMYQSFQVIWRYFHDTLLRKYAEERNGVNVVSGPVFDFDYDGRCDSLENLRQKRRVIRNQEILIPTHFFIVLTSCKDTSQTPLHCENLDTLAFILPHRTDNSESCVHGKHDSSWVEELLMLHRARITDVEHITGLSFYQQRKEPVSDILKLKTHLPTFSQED

[2] = target: T1, Ectonucleotide pyrophosphatase/phosphodiesterase family member 1; test: Inhibition of ENPP1 in human MDA-MB-231 cells using p-NPh-5TMP as substrate at pH 9.5 measured after 60 mins; assay type: cell-based
[3] = Clearance in Sprague-Dawley rat at 10 mg/kg, iv measured upto 24 hrs by LC-MS/MS analysis; assay type: ADME, organism-based; settings: in vivo
[4] = Cmax in Sprague-Dawley rat at 10 mg/kg, iv measured upto 24 hrs by LC-MS/MS analysis; assay type: ADME, organism-based; settings: in vivo
THP1-Dual KO-STING [5] = test: Activation of STING-mediated immune response in human THP1-Dual KO-STING cells assessed as cGAMP-induced ISRE activation at 1 uM preincubated with conditioned medium containing 36 hrs compound treated with human MDA-MB-231 cells and measured after 24 hrs by quanti-luc luciferase assay; assay type: cell-based; settings: filed as activator, time 60.0 hrs
[6] = AUC(0 to t) in Sprague-Dawley rat at 10 mg/kg, iv measured upto 24 hrs by LC-MS/MS analysis; assay type: ADME, organism-based; settings: in vivo
[7] = Efflux ratio of apparent permeability from basolateral to apical side over apical to basolateral side in human Caco-2 cells at 10 uM by LC-MS/MS analysis; assay type: ADME, cell-based
THP1-Dual [8] = test: Cytotoxicity against human THP1-Dual cells assessed as effect on cell viability at 10 to 1000 nM pretreated with compound in serum-free medium for 36 hrs in presence of cGAMP followed by replacement with condition medium and measured after 24 hrs by celltiter-glo assay; assay type: functional, cell-based; settings: dose 10-1000 nM, time 60.0 hrs
THP-1 = test: Activation of STING signalling pathway in human THP-1 cells assessed as increase in IFNB1 expression at 10 to 1000 nM measured after 18 hrs in presence of cGAMP by qPCR analysis; assay type: cell-based; settings: filed as activator, dose 10-1000 nM
THP1-Dual KO-STING [9] = test: Cytotoxicity against human THP1-Dual KO-STING cells assessed as effect on cell viability at 1 uM followed by addition of conditioned medium containing 36 hrs compound pretreated human MDA-MB-231 cells measured after 24 hrs by celltiter-glo assay; assay type: functional, cell-based; settings: time 60.0 hrs
[10] = Apparent permeability across apical to basal side in human Caco-2 cells at 10 uM by LC-MS/MS analysis; assay type: ADME, cell-based
[11] = target: T1, Ectonucleotide pyrophosphatase/phosphodiesterase family member 1; test: Inhibition of ENPP1 in human MDA-MB-231 cells using p-NPh-5TMP as substrate at pH 8.5 measured after 60 mins; assay type: cell-based
[12] = Apparent permeability across basal to apical side in human Caco-2 cells at 10 uM by LC-MS/MS analysis; assay type: ADME, cell-based
[13] = Half life in Sprague-Dawley rat at 10 mg/kg, iv measured upto 24 hrs by LC-MS/MS analysis; assay type: ADME, organism-based; settings: in vivo
[14] = target: T1, Ectonucleotide pyrophosphatase/phosphodiesterase family member 1; test: Binding affinity to human ENPP1 assessed as inhibition constant
[15] = MRT (0 to t) in Sprague-Dawley rat at 10 mg/kg, iv measured upto 24 hrs by LC-MS/MS analysis; assay type: ADME, organism-based; settings: in vivo
THP1-Dual [16] = test: (§1) Activation of STING-mediated immune response in human THP1-Dual cells assessed as increase in cGAMP-induced ISRE activation preincubated in conditioned medium containing 36 hrs compound treated with human MDA-MB-231 cells measured after 24 hrs by quanti-luc luciferase assay; assay type: cell-based; settings: filed as activator, time 60.0 hrs
[17] = target: Voltage-gated inwardly rectifying potassium channel KCNH2 (Homo sapiens, UniProt Q12809); test: Inhibition of hERG expressed in CHO cells by QPatch automated patch-clamp assay; assay type: toxicity, cell-based
Chain of Voltage-gated inwardly rectifying potassium channel KCNH2 (Q12809 whole entry): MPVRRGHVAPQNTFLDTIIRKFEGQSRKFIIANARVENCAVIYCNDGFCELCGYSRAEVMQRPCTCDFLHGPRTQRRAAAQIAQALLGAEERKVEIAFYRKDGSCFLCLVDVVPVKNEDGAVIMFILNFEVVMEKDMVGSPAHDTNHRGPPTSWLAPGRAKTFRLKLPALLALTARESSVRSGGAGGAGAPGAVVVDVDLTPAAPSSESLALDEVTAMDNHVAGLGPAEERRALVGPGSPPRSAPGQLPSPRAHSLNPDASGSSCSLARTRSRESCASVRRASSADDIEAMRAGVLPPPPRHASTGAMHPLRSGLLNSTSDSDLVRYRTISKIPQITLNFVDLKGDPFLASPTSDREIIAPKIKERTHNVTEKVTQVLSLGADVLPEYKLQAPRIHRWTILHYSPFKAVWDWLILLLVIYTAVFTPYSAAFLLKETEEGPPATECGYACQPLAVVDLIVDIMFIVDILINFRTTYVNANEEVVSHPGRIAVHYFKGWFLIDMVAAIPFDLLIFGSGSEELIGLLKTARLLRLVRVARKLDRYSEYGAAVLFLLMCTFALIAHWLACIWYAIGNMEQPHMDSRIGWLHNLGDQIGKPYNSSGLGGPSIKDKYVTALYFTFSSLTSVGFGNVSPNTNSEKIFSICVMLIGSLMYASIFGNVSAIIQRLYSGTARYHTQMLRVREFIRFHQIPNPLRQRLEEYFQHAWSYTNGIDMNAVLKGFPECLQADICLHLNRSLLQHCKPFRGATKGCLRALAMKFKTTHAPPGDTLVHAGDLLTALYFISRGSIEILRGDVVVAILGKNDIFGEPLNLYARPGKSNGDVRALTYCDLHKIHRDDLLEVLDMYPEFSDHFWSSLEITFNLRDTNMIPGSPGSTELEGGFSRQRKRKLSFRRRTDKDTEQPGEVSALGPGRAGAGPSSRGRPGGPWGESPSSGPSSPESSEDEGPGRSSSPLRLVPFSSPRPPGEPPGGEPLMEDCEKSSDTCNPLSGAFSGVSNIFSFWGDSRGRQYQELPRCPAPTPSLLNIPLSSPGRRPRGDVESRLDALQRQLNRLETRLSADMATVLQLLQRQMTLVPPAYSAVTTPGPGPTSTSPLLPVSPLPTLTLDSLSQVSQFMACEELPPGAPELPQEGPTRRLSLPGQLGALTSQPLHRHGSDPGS

[18] = Toxicity in female BALB/c mouse allografted with mouse CT26 cells assessed as change in body weight at 200 mg/kg QD, po measured every 2 days for 12 days; assay type: organism-based; settings: in vivo, 288 h, time 12 day
CT26 = test: Antitumor activity against mouse CT26 cells allografted in female BALB/c mouse assessed as tumor growth inhibition at 200 mg/kg QD, po measured every 2 days for 12 days relative to control; assay type: functional; settings: CT26, 288 h, time 12 day, read-out: TGI
THP1-Dual [19] = test: as §1, with “activation by measuring type 1 IFN response at 10 to 1000 nM” for “activation”; assay type: cell-based; settings: filed as activator, dose 10-1000 nM, time 60.0 hrs

SMILES	IC50 [1] [nM]	IC50 [2] [nM]	other results
COc1cccc2c(N3CCC4(CC3)CC(NS(N)(=O)=O)CO4)c(C#N)cnc12 (stereo unspecified)	572	> 1000	–
COc1cccc2c(N3CCC4(CC(NS(N)(=O)=O)C4)C3)c(C#N)cnc12 (stereo unspecified)	27.7	6.78	–
COc1cccc2c(N[C@H]3CC[C@H](NS(N)(=O)=O)CC3)ncnc12	370	> 1000	–
COc1cccc2c(NC34CC(NS(N)(=O)=O)(C3)C4)c(C#N)cnc12	6.22	10.3	–
COc1cccc2c(N3CCC(C)(CNS(N)(=O)=O)CC3)ncnc12	10.2	4.41	–
COc1cccc2c(N3CCC(CCP(=O)(O)O)CC3)ncnc12	0.5	50.1	clearance [3]: 94 mL/min/kg; Cmax [4]: 4800 ng/mL; Activity (THP1-Dual KO-STING [5]): Active; AUC(0-t) at 24 h [6]: 1780 ng·h/mL; efflux ratio at 10 µM [7]: 3.34; Activity (THP1-Dual [8]): Active; Activity (THP-1): Active; Activity (THP1-Dual KO-STING [9]): Active; Papp A→B at 10 µM [10]: 0.118 ×10⁻⁶ cm/s; IC50 [11]: 15 nM; Papp B→A at 10 µM [12]: 0.394 ×10⁻⁶ cm/s; half-life [13]: 0.878 h; Ki [14]: < 2 nM; MRT last at 24 h [15]: 0.39 h; Activity (THP1-Dual [16]): Dose-dependent-effect
COc1cccc2c(N3CCC(O)(CCNS(N)(=O)=O)CC3)ncnc12	305	154	–
COc1cccc2c(N3CCC(C#N)(CNS(N)(=O)=O)CC3)c(C#N)cnc12	6.65	0.97	Activity (THP-1): Active; IC50 [17]: > 40000 nM
COc1cccc2c(N[C@H]3CC[C@H](CNS(N)(=O)=O)CC3)c(C#N)cnc12	> 1000	> 1000	–
COc1cccc2c(N[C@H]3CC[C@@H](NS(N)(=O)=O)CC3)ncnc12	27.6	42	–
COc1cccc2c(N3CCC(F)(CNS(N)(=O)=O)CC3)c(C#N)cnc12	3.28	1.23	Activity (THP-1): Active
COc1cccc2c(NC34CC(NS(N)(=O)=O)(C3)C4)ncnc12	95.1	> 1000	–
COc1cccc2c(N3CCC4(CC(NS(N)(=O)=O)C4)C3)ncnc12 (stereo unspecified)	14.9	5.06	–
COc1cccc2c(N3CCC(F)(CNS(N)(=O)=O)CC3)ncnc12	14.9	2.88	–
COc1cccc2c(N[C@H]3CC[C@H](CNS(N)(=O)=O)CC3)ncnc12	> 1000	> 1000	–
COc1cccc2c(NC3CC(NS(N)(=O)=O)C3)ncnc12 (stereo unspecified)	438	> 1000	–
COc1cccc2c(N3CCC4(CC3)CC(NS(N)(=O)=O)C4)ncnc12	455	> 1000	–
COc1cccc2c(NC3CCC(NS(N)(=O)=O)CC3)ncnc12 (stereo unspecified)	156	> 1000	–
COc1cccc2c(N3CCC4(CC3)CC(NS(N)(=O)=O)C4)c(C#N)cnc12	373	> 1000	–
COc1cccc2c(N3CC4CC3CC4CNS(N)(=O)=O)c(C#N)cnc12 (stereo unspecified)	55.5	23.2	–
COc1cccc2c(NC3CCC(NS(N)(=O)=O)CC3)c(C#N)cnc12 (stereo unspecified)	40.3	8.62	–
COc1cccc2c(N3CCC(O)(CNS(N)(=O)=O)CC3)c(C#N)cnc12	11.6	1.84	Activity (THP-1): Active
COc1cccc2c(NC3CC(NS(N)(=O)=O)C3)c(C#N)cnc12 (stereo unspecified)	53.7	16.6	–
COc1cccc2c(N3CCC(C)(CNS(N)(=O)=O)CC3)c(C#N)cnc12	3.84	1.07	Activity (THP-1): Active; IC50 [17]: > 40000 nM
Cn1nc(Cc2ccc(NS(N)(=O)=O)cc2)c2ccccc2c1=O	1380	556	clearance [3]: 6.18 mL/min/kg; Cmax [4]: 11400 ng/mL; AUC(0-t) at 24 h [6]: 27900 ng·h/mL; Activity [18]: Non-toxic; efflux ratio at 10 µM [7]: 3.82; Activity (THP1-Dual [8]): Active; inhibition in vivo at 200 mg/kg (CT26): 39.4%; Activity (THP1-Dual KO-STING [9]): Active; Activity (THP1-Dual [19]): Active; Papp A→B at 10 µM [10]: 6.06 ×10⁻⁶ cm/s; IC50 [11]: 4560 nM; Papp B→A at 10 µM [12]: 23.2 ×10⁻⁶ cm/s; half-life [13]: 3.24 h; MRT last at 24 h [15]: 2.92 h
COc1cccc2c(N[C@H]3CC[C@@H](NS(N)(=O)=O)CC3)c(C#N)cnc12	18	10.7	–
COc1cccc2c(N3CCC4(CC3)CC4NS(N)(=O)=O)c(C#N)cnc12 (stereo unspecified)	23.7	6.2	–
COc1cccc2c(N3CCC4(CC3)CC4NS(N)(=O)=O)ncnc12 (stereo unspecified)	95.3	> 1000	–
